# Measurements as given in patent US11628179B2, “Compounds for treating and preventing extracellular histone mediated pathologies” (priority 2017, dated 2023).
# Structures can show the parent of a compound that is named as a salt.
# System: C57BI/6 mice
# Assay: EAE model of multiple sclerosis
# Assay type: in vivo, mouse
# Conditions: 50 mg/kg i.p. daily day 0-9, 35 day window
# Protocol: EAE Model of Multiple Sclerosis. EAE was induced in 8-12 week old C57BI/6 mice by subcutaneous immunisation with 115 μg/mouse myelin oligodendrocyte glycoprotein (MOG35-55 genscript) in Complete Freund's Adjuvant (Sigma) on day 1. 300 ng/mouse Pertussis toxin (List Biological Laboratories) in PBS was injected intra peritoneal (i.p.) on days 0 and 2. 50 mg/kg mCBS in PBS or PBS alone (vehicle) was given i.p. daily for day 0-9. Mice were monitored daily for signs of disease and were scored on a scale of 0-5 based on physical manifestations of disease. Mice were scored as follows: 0, clinically normal; 1, flaccid tail and/or ataxia; 2, hind limb weakness; 3, hind limb paralysis; 4, hind and front limb paralysis; and 5, moribund.
smiles,measurement,value
"CO[C@@H]1O[C@H](COS(=O)(=O)O)[C@@H](O[C@@H]2O[C@H](COS(=O)(=O)O)[C@@H](OS(=O)(=O)O)[C@H](OS(=O)(=O)O)[C@H]2OS(=O)(=O)O)[C@H](OS(=O)(=O)O)[C@H]1OS(=O)(=O)O [mCBS, β-O-methyl cellobioside sulfate]",protection from EAE development,substantial protection
